# According to patent publication US9625448B2, “Double caged GABA compounds, bis-CNB-GABA” (The Trustees of Princeton University, priority 2014, dated 2017):
# Where “and” joins values, the source holds several entries; their conditions need not be identical. Identical values can stand only once. Like-named read-outs stand apart in the source and are kept apart here.
# Legend:
# [1] = test system: cerebellar interneurons; assay: Whole-cell holding current under voltage clamp in cerebellar interneurons exposed to caged GABA; type: cell-based
# Text: FIGS. 43A-43E illustrate quantification of unwanted effects of caged GABA. Referring to FIGS. 43A-43E, first, changes in whole-cell holding current under voltage clamp were monitored while caged GABA compounds were applied by bath application or by local perfusion as per Civillico, E. F.; Shoham, S.; O'Connor, D. H.; Sarkisov, D. V.; Wang, S. S.-H. Cold Spring Harb. Protoc. 2012, which is incorporated herein by reference as if fully set forth). FIG. 43A illustrates voltage-clamp recordings from cerebellar interneurons exposed to caged GABA. Referring to this figure, upper trace corresponds to 1 mM bis-CNB-GABA; middle trace corresponds to 0.1 mM mono-O-CNB-GABA; bottom trace corresponds to 1 mM DPNI-GABA. Referring to FIG. 43A, (right) expanded traces illustrating the detailed effects on steady-state holding current and fluctuations in holding current were observed. FIG. 43B illustrates effects of caged GABA on spontaneous IPSCs and excitatory postsynaptic currents (EPSCs). Referring to FIG. 43B, IPSCs and EPSCs were identified and separated based on kinetic criteria. FIG. 43B (left) illustrates box plots of spontaneous postsynaptic current amplitudes in control conditions and in the presence of 1 mM bis-CNB-GABA. Referring to FIG. 43B (left), boxes show interquartile range and whiskers show full range of values. FIG. 43B (right) illustrates individual traces (gray) and average (block) of detected spontaneous IPSCs and EPSCs. FIG. 43C illustrates dependence of spontaneous IPSC amplitude on bis-CNB-GABA concentration. […]
# Referring to FIG. 43D, in contrast, application of bis-CNB-GABA (raw product, 0.4 to 2.0 mM) evoked no detectable change in the holding current (ratio of holding current drug/control=1.0±0.3, n=14, p=0.7, Mann-Whitney test) or in its standard deviation, which is a measure of steady-state channel noise (from 3.0±0.5 to 3.2±0.8 pA, n=14, p=0.3) measured during periods of no spontaneous currents. […]
# [2] = physchem; type: physicochemical; details: for rate of spontaneous photoproduct / GABA production: aqueous buffer, 23° C., 12 mM, pH 7.4, fluorescent room lights, first 8 days
# Method: The hydrolytic stability of bis-CNB-GABA under normal handling conditions was examined. Accordingly, we prepared samples of bis-CNB-GABA and mono-O-CNB-GABA were prepared in aqueous buffer (23° C., 12 mM, pH=7.4), stored the samples under fluorescent room lights, and determined accumulation of deprotected GABA at 1-day intervals.
# FIGS. 44A-44B illustrate accumulation of GABA in ambient room light. FIG. 44A illustrates 1H NMR data used to quantify GABA accumulation. Top, bis-CNB-GABA before light exposure. Arrows denote methylene peaks of bis-CNB-GABA. Peaks at ˜3.45 ppm and ˜3.2 ppm in each spectrum correspond to dimethoxyethane, used as an internal standard. Bottom, The teal overlay indicates the post-photolysis spectrum of bis-CNB-GABA after 17 days of exposure to ambient fluorescent light. Arrows denote the two visible peaks corresponding to a combination of GABA and mono-N-CNB-GABA photoproducts. Note the lack of extraneous peaks in the 0-4 ppm range after light exposure. The dominant final photoproduct of bis-CNB-GABA was GABA, as identified using ^1H NMR. FIG. 44A illustrates 1H NMR data used to quantify GABA accumulation. Referring to this figure (top), bis-CNB-GABA before light exposure. Arrows denote methylene peaks of bis-CNB-GABA. Still referring to FIG. 44A, peaks at ˜3.45 ppm and ˜3.2 ppm in each spectrum correspond to dimethoxyethane, used as an internal standard. Still referring to FIG. 44A (bottom), the teal overlay indicates the post-photolysis spectrum of bis-CNB-GABA after 17 days of exposure to ambient fluorescent light. Arrows denote the two visible peaks corresponding to a combination of GABA and mono-N-CNB-GABA photoproducts. The lack of extraneous peaks in the 0-4 ppm range was observed after light exposure. The combined amount of mono-decaging (N-CNB-GABA) and double-decaging (GABA) photoproduct was quantified using the integrated multiplet at 2.15 ppm, with dimethoxyethane (singlet peaks at 3.20 and 3.45 ppm) as a standard.
# [3] = 1994, cited from earlier work
# [4] = test system: GABAA receptors; assay: Spontaneous IPSC / miniature GABA current amplitude, whole-cell patch recording from cerebellar molecular layer interneurons; type: cell-based
# Method: Bis-CNB-GABA was applied in vitro. Currents were recorded from cerebellar interneurons. […] FIG. 35 (right) illustrates response traces before and after application of bis-CNB-GABA. FIG. 35 (left) illustrates summary of data. FIG. 36 illustrates effects of 1 mM bis-CNB-GABA on spontaneously evoked miniature glutamate and miniature GABA currents in cerebellar interneuron.
# The biological properties of our synthetic bis-CNB-GABA were evaluated using whole-cell patch recording from cerebellar molecular layer interneurons.
# FIGS. 43A-43E illustrate quantification of unwanted effects of caged GABA. Referring to FIGS. 43A-43E, first, changes in whole-cell holding current under voltage clamp were monitored while caged GABA compounds were applied by bath application or by local perfusion as per Civillico, E. F.; Shoham, S.; O'Connor, D. H.; Sarkisov, D. V.; Wang, S. S.-H. Cold Spring Harb. Protoc. 2012, which is incorporated herein by reference as if fully set forth). FIG. 43A illustrates voltage-clamp recordings from cerebellar interneurons exposed to caged GABA. Referring to this figure, upper trace corresponds to 1 mM bis-CNB-GABA; middle trace corresponds to 0.1 mM mono-O-CNB-GABA; bottom trace corresponds to 1 mM DPNI-GABA. Referring to FIG. 43A, (right) expanded traces illustrating the detailed effects on steady-state holding current and fluctuations in holding current were observed. FIG. 43B illustrates effects of caged GABA on spontaneous IPSCs and excitatory postsynaptic currents (EPSCs). Referring to FIG. 43B, IPSCs and EPSCs were identified and separated based on kinetic criteria. FIG. 43B (left) illustrates box plots of spontaneous postsynaptic current amplitudes in control conditions and in the presence of 1 mM bis-CNB-GABA. Referring to FIG. 43B (left), boxes show interquartile range and whiskers show full range of values. FIG. 43B (right) illustrates individual traces (gray) and average (block) of detected spontaneous IPSCs and EPSCs. FIG. 43C illustrates dependence of spontaneous IPSC amplitude on bis-CNB-GABA concentration. […] FIG. 43D illustrates comparison of effects of mono-O-CNB-GABA (0.1 mM) and bis-CNB-GABA (1.0 mM, except for 0.4 mM for IPSCs) on spontaneous IPSC amplitude, standard deviation of holding current (noise), and holding current (Ihold). FIG. 43E illustrates spontaneous EPSC size was unaffected by bis-CNB-GABA at all concentrations tested. Referring to FIGS. 43A and 43D, under these conditions, mono-O-CNB-GABA (0.1 mM) led to increases of 66±47 pA (mean±SD, n=6) in inward holding current at −60 mV (Ihold). This inward current presumably arises either via indirectly evoked increases in excitation or from direct activation of GABAA receptors (by residual free GABA in the caged compound solution or by mono-O-CNB-GABA, which may itself have partial agonist activity). See Dellal., S. S.; Luo, R.; Otis, T. S. J. Neurophysiol., 2012, 107, 2958-2970, which is incorporated herein by reference as if fully set forth.
# Referring to FIG. 43B, the effects of bis-CNB-GABA on spontaneous IPSCs was next measured. […] Referring to FIG. 43B, in contrast, addition of bis-CNB-GABA served to reduce GABA current amplitudes by approximately one-third (FIG. 43B, top; 0.4 to 2.0 mM; ratio of amplitudes during drug/control: 0.68±0.17, n=14). […] This IC50 is, in fact, a lower bound; the material tested was crude product, which may contain minute amounts of mono-CNB-GABA.
# [5] = at 24 hr; prior report; cited from earlier work
smiles,measurement,setting,value
"O=C(CCCNC(C(=O)O)c1ccccc1[N+](=O)[O-])OC(C(=O)O)c1ccccc1[N+](=O)[O-] (stereo not drawn) [bis-CNB-GABA, 2-((4-(Carboxy(2-nitrophenyl)methoxy)-4-oxobutyl)amino)-2-(2-nitrophenyl)acetic acid]",standard deviation of holding current (steady-state channel noise),"[1]; 0.4 to 2.0 mM, control 3.0±0.5 pA, n=14",3.2±0.8 pA
same,ratio of holding current drug/control,"[1]; raw product, 0.4 to 2.0 mM, n=14",1.0±0.3
same,rate of spontaneous photoproduct / GABA production,[2],1.5±0.1 %/day
same,half-life at 12 mM,"[2]; buffer, pH 7.4",98 days
same,accumulation of GABA,[2]; during a week in the light,less than 1%
same,estimated production of N-CNB-GABA,[2]; during a week in the light,10%
same,dark reaction time,"[3]; N-position, Wieboldt et al.",1.5 ms
same,concentration generating 33% reduction in response,[4],1 mM
same,"effects on holding current, IPSCs, or EPSCs",[4]; 1 mM,minimal or no effects
same,decrease in miniature GABA response amplitude / reduction of GABA currents,"[4]; 1 mM, cerebellar interneuron",~33%
same,ratio of GABA current (spontaneous IPSC) amplitudes during drug/control,"[4]; 0.4 to 2.0 mM, n=14",0.68±0.17
same,Kd,"[4]; FIG. 43C, read-out: KD of fit, dependence of spontaneous IPSC amplitude on concentration",2.5 ± 0.2 mM
same,IC50,"[4]; Table 1, calculated from q=[j]/[j]+IC50, read-out: IC50",2 mM
same,IC33,"[4]; Table 1, calculated, q=0.33",1.0
same,IC50,"[4]; Table 2, the data herein, read-out: IC50 in blocking synaptic GABAA currents",≥ 2.5 mM
same,10-90% rise time of IPSCs,"[4]; during bis-CNB-GABA application, control 0.44±0.13 ms",0.44±0.11 ms
same,IC50,"[4]; read-out: estimated IC50 from concentration-dependence of the reduction of spontaneous IPSC amplitude, crude product, stated to be a lower bound",≥ 2.5 mM
same,antagonist activity at submillimolar concentrations,[4]; submillimolar concentrations,virtually no antagonist activity
same,fold less antagonistic binding compared to CDNI-GABA,[4]; vs CDNI-GABA,4 fold
same,fold less antagonism compared to DPNI-GABA,[4]; vs DPNI-GABA,4 fold
same,fold lower affinity / reduction of antagonism compared to mono-caged analog,[4]; vs mono-CNB-GABA,70 fold and 100 fold
NCCCC(=O)OC(C(=O)O)c1ccccc1[N+](=O)[O-] (stereo not drawn) [mono-CNB-GABA],increase in inward holding current at −60 mV (Ihold),"[1]; 0.1 mM, mean±SD, n=6",66±47 pA
same,rate of spontaneous photoproduct / GABA production,[2],1.0±0.2 %/day
same,extrapolated half-life t1/2,"[2]; buffer, pH 7.4",138 days
same,uncaging speed,[3]; Gee et al.,microsecond range
same,conversion in the dark,[5],< 1%
same,effect on rate of spontaneous IPSCs,[4]; 1 mM,dramatic decrease
